From article PMC11091220, “Metabolism-driven in vitro/in vivo disconnect of an oral ERɑ VHL-PROTAC” (Communications Biology, 2024)
Several values for one entry are separate records, joined by “and”; a condition that tells them apart may be missing. Identical values can stand only once.

Experiments:
[1] = target: T1, ERα (Homo sapiens, UniProt P03372); experiment: ERα degradation in a panel of ER+ cell lines (western blot); assay type: cell-based; conditions: 100 nM; for ERa degradation vs vehicle: 48 h, listed as AZ'6421
T1 construct: endogenous in cells; host or cells: MCF7 (also MCF7 engineered to express Cas9)
T1 sequence (P03372 1-595): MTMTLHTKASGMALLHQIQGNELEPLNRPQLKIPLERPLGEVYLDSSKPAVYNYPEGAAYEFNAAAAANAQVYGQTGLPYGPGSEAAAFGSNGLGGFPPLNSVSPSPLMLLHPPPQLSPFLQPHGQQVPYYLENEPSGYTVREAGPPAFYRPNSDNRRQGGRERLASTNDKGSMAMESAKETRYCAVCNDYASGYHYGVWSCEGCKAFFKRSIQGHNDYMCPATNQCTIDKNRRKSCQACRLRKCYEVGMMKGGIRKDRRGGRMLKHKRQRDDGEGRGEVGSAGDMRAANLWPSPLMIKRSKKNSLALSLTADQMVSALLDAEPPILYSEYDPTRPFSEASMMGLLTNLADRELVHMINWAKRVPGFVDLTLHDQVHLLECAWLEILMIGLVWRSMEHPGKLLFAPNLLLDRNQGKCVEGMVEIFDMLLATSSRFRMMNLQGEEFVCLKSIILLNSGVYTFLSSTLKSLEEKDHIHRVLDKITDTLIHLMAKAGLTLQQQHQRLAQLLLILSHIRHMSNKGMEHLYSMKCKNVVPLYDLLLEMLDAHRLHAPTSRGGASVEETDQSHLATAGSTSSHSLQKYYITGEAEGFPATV
Protocol: Fig. 3 AZ’6421 potently degrades ERα and inhibits ER-regulated gene transcription. a MCF7 cells were treated with increasing concentrations of AZ’6421 for 24 h and probed for ERα by immunoblot analysis. b SILAC experiment to measure ERα peptide turnover in MCF7 cells. Cells cultured in the presence of heavy L-arginine were switched at time T = 0 to media containing light L-arginine plus 0.1% DMSO, 1 µM AZ’6421, or 1 µM fulvestrant. Cells were collected at the indicated timepoints and the proportion of heavy-labelled ERα assessed by mass spectrometry. % ERα heavy peptide is plotted relative to DMSO control. Data points show the mean of 3 independent experiments with points in bold representing the mean. c A panel of ER+ cells were treated with 100 nM AZ’6421 for 48 h. ERα was normalised to vinculin and expressed as % of vehicle control. Data points represent an independent experiment for each cell line, error bars indicate ± s.e.m. d Heatmap showing changes in mRNA expression of a panel of ER-regulated genes. MCF7 and CAMA1 cells were stimulated with 0.1 nM estradiol in the presence of DMSO, 100 nM fulvestrant (Fulv), 100 nM AZD9833, or 100 nM AZ’6421 for 24 hours. Data points show 3 independent experiments. e Growth inhibition curves for MCF7 and CAMA1 cells, treated with increasing concentrations of AZ’6421 for 6 days. Data points show 4–5 independent experiments, bold points represent the mean. TEXT PRINTED IN THE PICTURE: (c) no label printed: Mean % ER Degradation, MCF-7: 96; Mean % ER Degradation, CAMA-1: 92; Mean % ER Degradation, ZR75-1: 95; Mean % ER Degradation, MDA-MB-134: 99; Mean % ER Degradation, BT474: 83; Mean % ER Degradation, HCC1428: 92; Mean % ER Degradation, T47D: 87 DOUBTS OF THE COPYIST ABOUT THIS PICTURE: Panel c prints no substance label for the Mean % ER Degradation values, so the substance is left empty.
Cells were seeded into 12-well tissue culture-treated plates at 0.5 x 10^6 cells/well in phenol red-free RPMI containing 5% (v/v) charcoal-stripped FBS (F6765, Sigma) and left to adhere overnight. In experiments to detect agonism or for SILAC experiments, FBS was double stripped using activated charcoal. […] Expression levels of proteins were determined by standard western blotting techniques (BioRad 4%-12% Bis-Tris gels). Antibodies were diluted in 5% milk-PBS-Tween and protein levels were detected using Pierce WestDura chemiluminescent reagents followed by visualisation and quantification on a Syngene ChemiGenius Imager. Where blots were quantified, protein levels were normalised to beta-actin or vinculin control and expressed as % of vehicle control.

[2] = tested on: CTC174 patient-derived xenograft (PDX) model; experiment: Efficacy study in CTC174 PDX model, tumour growth; assay type: in vivo, mouse
Protocol: CTC174 (ER/PR positive, HER2-negative patient-derived xenograft (PDX) model) studies were conducted following implantation of a tumour fragment in female NSG mice; established tumours were removed from donor mice and dissected into 3x3x3 mm pieces in RPMI 1640 media. Female NOD scid gamma (NSG) mice were anesthetized using 2% isoflurane, a small incision was made through the skin, 0.5 cm dorsally to the third nipple, and a tumour fragment was inserted between the skin layer and the third mammary fat pad. The skin was closed with surgical glue (VetBond, 3 M).
Mice were randomised into groups of 8-10 once tumour sizes reached approximately 0.2 cm^3. AZ’6421 was dosed orally at 30 mg/kg QD or 100 mg/kg BID using EF3, alongside a vehicle control. AZD9833 was dosed at 10 mg/kg PO, QD. Tumours were measured twice per week and changes in tumour volume and growth inhibition were determined by bilateral Vernier caliper measurement (length x width), where length was taken to be the longest diameter across the tumour and width the corresponding perpendicular. Tumour volume was calculated using the formula (length x width) x √ (length x width) x π/6). Tumour growth inhibition from the start of the study to the final day of tumour measurement was assessed by comparison of the geometric mean change in tumour volume for the control and treated groups. Tumour regression was calculated as the percentage reduction in tumour volume from baseline (pre-treatment) value (where relative tumour volume [RTV] = geometric mean RTV): %regression=(1−RTV)×100% Statistical significance was evaluated using a one-tailed t-test compared to vehicle control at the day of final tumour measures.

[3] = target: T1, ERα; experiment: Western blot analysis of ERα in MCF7 cells (dose response, MG132, VHL ligand and cpd 8 competition); assay type: cell-based; conditions: Figure 6f, read-out: ERa % of control

Compound: Cc1ncsc1-c1ccc(CNC(=O)[C@@H]2C[C@@H](O)CN2C(=O)[C@@H](NC(=O)COCCCOCCCOc2cc(F)c([C@@H]3c4[nH]c5ccccc5c4C[C@@H](C)N3CC(C)(C)F)c(F)c2)C(C)(C)C)cc1 [Compound 5]
- ERα protein abundance, % of the vehicle ([1]; all cell lines tested): less than 20%
- ERa degradation vs vehicle ([1]; BT474): 4.37 and 5.82
- ERa degradation vs vehicle ([1]; HCC1428): 9.04 and 6.44
- ERa degradation vs vehicle ([1]; MDA-MB-134): 1.1 and 1.64
- effect on tumour growth ([2]; 30 mg/kg QD, CTC174 PDX): no significant effect on tumour growth
- individual tumour volume relative to day 0 ([2]; 30mg/kg, day 0): 1
- individual tumour volume relative to day 0 ([2]; 30mg/kg, day 3, listed as AZ'6421): 0.7122 and 1.194
- individual tumour volume relative to day 0 ([2]; 30mg/kg, day 24, listed as AZ'6421): 0.687 and 1.553 and 0.9229 and 3.138 and 3.998 and 5.933 and 2.313 and 1.402
- individual tumour volume relative to day 0 ([2]; 30mg/kg, day 28, listed as AZ'6421): 0.8313 and 2.512 and 0.8896 and 2.922 and 2.315 and 6.135 and 3.14 and 1.905
- individual tumour volume relative to day 0 ([2]; 30mg/kg, day 31, listed as AZ'6421): 0.7668 and 3.025 and 1.034 and 3.595 and 3.598 and 7.563 and 4.273 and 1.656
- individual tumour volume relative to day 0 ([2]; 30mg/kg, day 32, listed as AZ'6421): 0.5475 and 2.09 and 0.9038 and 4.599 and 4.337 and 8.487 and 4.5171 and 1.317
- individual tumour volume relative to day 0 ([2]; 30mg/kg, day 35, listed as AZ'6421): 0.7044 and 2.34 and 1.039 and 4.934 and 5.34 and 5.3436 and 1.76
- tumour growth inhibition ([2]; 100 mg/kg BID, CTC174 PDX): 86%
- individual tumour volume relative to day 0 ([2]; 100mg/kg BID, day 0): 1
- individual tumour volume relative to day 0 ([2]; 100mg/kg BID, day 3, listed as AZ'6421): 0.8229 and 1.103 and 0.6717 and 0.9409 and 1.283 and 1.22 and 0.8606
- individual tumour volume relative to day 0 ([2]; 100mg/kg BID, day 24, listed as AZ'6421): 0.798 and 1.29 and 1.172 and 1.123 and 1.125 and 1.792 and 0.9657 and 0.7632
- individual tumour volume relative to day 0 ([2]; 100mg/kg BID, day 28, listed as AZ'6421): 1.185 and 1.364 and 1.661 and 0.8768 and 1.158 and 1.79 and 0.955
- individual tumour volume relative to day 0 ([2]; 100mg/kg BID, day 31, listed as AZ'6421): 1.384 and 1.261 and 1.388 and 0.978 and 1.011 and 2 and 1.056
- individual tumour volume relative to day 0 ([2]; 100mg/kg BID, day 32, listed as AZ'6421): 1.118 and 1.021 and 1.453 and 0.5782 and 0.607 and 1.779 and 0.9427
- individual tumour volume relative to day 0 ([2]; 100mg/kg BID, day 35, listed as AZ'6421): 0.7796 and 0.7051 and 1.086 and 0.6654 and 0.8654 and 1.332 and 0.777

Compound: C[C@@H]1Cc2c([nH]c3ccccc23)[C@@H](c2c(F)cc(OCCC(=O)O)cc2F)N1CC(C)(C)F [Compound 8]
- remaining activity at 0.001 µM ([3]; 1 nM): 51.3%
- remaining activity at 0.01 µM ([3]; 10 nM): 51.6%
- remaining activity at 0.03 µM ([3]; 30 nM): 47.7%
- remaining activity at 0.1 µM ([3]; 100 nM): 29.2%
- remaining activity at 0.3 µM ([3]; 300 nM): 46.3%
- remaining activity at 1 µM ([3]; 1000 nM): 42%
